Measured values taken from patent publication US5491236A, “(1,2N) and (3,2N)-carbocyclic-2-amino tetralin derivatives” (The Upjohn Company, priority 1991, dated 1996).
pIC50: −log10 of the molar value. Structures can show the parent of a compound that is named as a salt.

How the values were obtained:
[1] = biological target: T1, 5-hydroxytryptamine (5-HT1A) receptor (Bos taurus, UniProt F6Q2H9); test: Inhibition of 8-OH-DPAT binding in a bovine brain homogenate (5-HT1A binding)
T1 construct: from tissue; host or cells: bovine brain homogenate
T1 sequence (F6Q2H9 1-422): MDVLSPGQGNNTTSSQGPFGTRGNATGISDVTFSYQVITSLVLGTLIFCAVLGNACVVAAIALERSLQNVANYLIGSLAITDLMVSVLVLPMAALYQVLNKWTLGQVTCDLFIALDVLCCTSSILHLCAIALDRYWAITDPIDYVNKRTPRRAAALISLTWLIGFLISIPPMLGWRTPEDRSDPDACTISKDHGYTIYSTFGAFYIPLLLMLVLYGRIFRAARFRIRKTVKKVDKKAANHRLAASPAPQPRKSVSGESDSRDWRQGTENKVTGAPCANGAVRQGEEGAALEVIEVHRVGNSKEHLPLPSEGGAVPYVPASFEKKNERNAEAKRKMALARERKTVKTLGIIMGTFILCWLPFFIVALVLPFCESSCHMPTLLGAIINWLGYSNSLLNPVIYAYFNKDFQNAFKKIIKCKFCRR
Text: Binding: Inhibition of 8-OH-DPAT binding in a bovine brain homogenate. Potency is given as nM dose required to inhibit 50% of DPAT binding (IC50). This test measures ability to bind to 5-hydroxytryptamine (5-HT1A) receptor.

[2] = Hypothermia in mice (s.c.); type: in vivo; conditions: subcutaneous, dose required to depress temperature by 2° C. in two of four mice; for ED50: Mus musculus, sc
Description: Hypothermia: Starting with a dose of 30 mg/kg, four mice are injected subcutaneously with test compound. Twenty minutes later, the number of animals whose body temperature has decreased by 2° C. or more are counted. If all four animals reach criteria, the drug is considered "active", and subsequent readings are taken at 60 and 120 minutes after drug. The time for last statistically significant drug affect on mean body temperature is indicated in minutes. […] Potency is given as mg/kg ED50 (dose required to depress temperature in two of four mice) as measured by Spearman-Karber statistics.

[3] = system: dopamine; test: Dopamine activity (evaluation of dopamine and serotonin metabolites); conditions: result in words
Text: (§1) The compounds of this invention where R1 is in 8-position in the aromatic ring are very selective 5-HT1A receptor agonists having generally little or no dopaminergic activity. […] The compound of this invention where R1 is in 5-position in the aromatic ring, on the other hand, have dopaminergic activity with little 5-HT1A agonist activity. […] These compounds are particularly effective anxiolytic and antidepressant agents. Other uses for these compounds include panic attacks, obsessive-compulsive disturbances, and senile dementia particularly the emotional disturbances seen in dementia disorders. In addition, central 5 -HT receptor activation are believed to be involved in mediating sexual behavior. These compounds would be useful to stimulate sexual activity and to alleviate impotence. The compounds of this invention are also useful to alleviate aggressive behavior, confusional delirious states.

[4] = system: 5-HT1A receptor; test: 5-HT1A agonist activity; conditions: result in words
Text: as §1

[5] = system: Sympathetic Nerve Discharge; test: Sympathetic Nerve Discharge (SND) in chloralose anesthetized cats; type: in vivo; conditions: for Max. Decr. SND %: maximum inhibition of sympathetic activity in dose range 0.001-1.0 mg/kg i.v., cats
Description: Sympathetic Nerve Discharge (SND): The i.v. mg/kg dose causing a 50% depression in SND in chloralose anesthetized cats and the maximum inhibition of sympathetic activity observed in the dose range tested (0.00 1-1.0 mg/kg i.v. ).

[6] = BP SND/MAX: blood pressure of chloralose anesthetized cats; type: in vivo; conditions: for % BP Control: blood pressure in percent control at the dose causing 50% depression in SND, cats i.v.; for Max. Decr. BP (at SND ED50): maximum reduction in blood pressure as percent of control, 0.001-1.0 mg/kg i.v., cats
Description: BP SND/MAX: The blood pressure of the chloralose anesthetized cats in percent control at the dose causing 50% depression in SND and the maximum reduction in blood pressure as percent of the control blood pressure in the same animals observed in the dose range tested (0.001-1.0 mg/kg i.v.).

[7] = system: dopamine autoreceptors; conditions: background, result in words; cited from earlier work
[8] = man, low doses; result in words; cited from earlier work
[9] = Chem. Ab., 79: 146294b; cited from earlier work
[10] = system: dopamine receptors; conditions: background, result in words; cited from earlier work
[11] = some patients; result in words; cited from earlier work
[12] = system: 5-HT1A receptor; test: Selectivity, IC50 ratio of dopamine D2 to 5-HT1A in vitro binding; conditions: result in words
Text: as §1

[13] = J. Pharm. Sci., 67, 880-82 (1978); cited from earlier work

In the case of `C=CCN1CC[C@@H]2c3cccc(OC)c3CC[C@@H]21.Cl` (racemic) [Example 4 Compound #3, Cis-(+-)-2,3,3a,4,5,9b-hexahydro-6-methoxy-3-(2-propenyl)-1H-benz[e]indole hydrochloride], the pIC50 [1] was 6.20, the ED50 [2] was 30 mg/kg and the dopamine activity ([3]; hydrochloride) was “good selective dopamine activity”. For the same molecule, the dopamine activity ([3]; listed as Example 4, compound #3, hydrochloride) was “selective dopamine antagonist activity” and the 5-HT1A agonist activity [4] was “low 5-HT1A agonist activity”.
With `C=CCN1CC[C@@H]2c3ccccc3CC[C@@H]21.Cl` (racemic) [Example 4 Compound #1, Cis-(+-)-2,3,3a,4,5,9b-hexahydro-3-(2-propenyl)-1H-benz[e]indole hydrochloride] the ED50 ([5]; Felis catus, iv, i.v. dose causing 50% depression in SND, chloralose anesthetized cats) was 0.09 mg/kg, the “Max. Decr. SND %” value [5] was 0.0% and the “% BP Control” value [6] was 76%. The “Max. Decr. BP (at SND ED50)” value [6] was 60%.
For `CN1CCc2cccc3c2[C@H]1Cc1ccc(O)c(O)c1-3` [apomorphine], the “activation of dopamine autoreceptors and post synaptic dopamine receptors” value [7] is given as “able to activate the dopamine autoreceptors as well as the post synaptic dopamine receptors” and the “anti-psychotic and anti-dyskinetic effects” value [8] is given as “anti-psychotic and anti-dyskinetic effects in man”.
`C=CCN1[C@H](C)C[C@H]2c3c(O)cccc3CC[C@H]21` (relative stereo) [Example 2 Compound #1, (+-)-2α,3,3a,α,4,5,9b,α-hexahydro-2-methyl-3-(2-propenyl)-1H-benz[e]indol-9-ol hydrochloride] showed a pIC50 [1] of 9.02 and an ED50 [2] of 5.5 mg/kg.
With “(+-)-1,2,2a,-3,4,8b-hexahydro-8-methoxy-2-(prop-2-en-1-yl)-naphtho[2, 1-B]azetidine hydrochloride [Example 5 Compound #1]” the pIC50 [1] was 7.83, the “Hypothermia ED50” value [2] was 4.1 mg/kg and the “SND ED50” value ([5]; i.v. dose causing 50% depression in SND, chloralose anesthetized cats) was 0.083 mg/kg. The “Max. Decr. SND %” value [5] was 14.0%, the “% BP Control” value [6] was 77% and the “Max. Decr. BP (at SND ED50)” value [6] was 59%.
In the case of `CN(C)C1CCc2ccc(O)cc2C1(C)C` (stereo not drawn) [1,1-Dimethyl-2-(N,N-dimethylamino)-7-hydroxytetralin], the “analgesic and intestinal movement accelerating actions” value [9] is given as “analgesic and intestinal movement accelerating actions”.
In the case of `CC1(C)CC(=O)N(CCCCN2CCN(c3ncccn3)CC2)C(=O)C1` [Gepirone], the dopamine receptor antagonism [10] is listed as “dopamine antagonist properties” and the “effects on depressive endpoints” value [11] is listed as “ameliorative effects on some depressive endpoints in some patients”.
With `C=CCN1CC[C@@H]2c3c(cccc3OC)CC[C@@H]21` (racemic) [Example 4 Compound #2, cis-(+-)-2,3,3a,4,5,9b-hexahydro-9-methoxy-3-(2-propenyl)-1H-benz[e]indole hydrochloride] the pIC50 [1] was 8.55, the ED50 [2] was 2.3 mg/kg and the “selectivity for the 5-HT1A receptor” value [12] was “demonstrates the selectivity for the 5-HT1A receptor”.
In the case of `COc1cccc2c1CCC(NC1CC1)C2C` (stereo not drawn) [1-methyl-2-(cyclopropylamino)-5-methoxytetralin], the local anesthetic activity [13] is listed as “local anesthetic activity”.
In the case of `O=C1CC2(CCCC2)CC(=O)N1CCCCN1CCN(c2ncccn2)CC1` [Buspirone], the dopamine receptor antagonism [10] is given as “antagonizes dopamine receptors at the same dose it stimulates 5-HT1A receptors”.
